Patent US12172975B2, “1H-indazole carboxamides as receptor-interacting protein kinase 1 inhibitors (RIPK1)” (BRISTOL-MYERS SQUIBB COMPANY, priority 2018, dated 2024)
Like-named read-outs stand apart in the source and are kept apart here.

What was measured:
[1] = biological target: His-GST-TVMV-hRIPK1 (1-324) (Homo sapiens (Human), UniProt Q13546); assay: RIPK1 HTRF Binding Assay; conditions: read-out: RIPK1 HTRF (IC50); FRET probe displacement, 1 h at rt
[2] = system: MLKL phosphorylation in HT29-L23 human colorectal adenocarcinoma cells; assay: MLKL Phosphorylation High-Content Assay; format: cell-based; conditions: 6 h, necroptosis induced with TNFα, SMAC mimetic and Z-VAD, read-out: pMLKL (IC50)
Experimental: MLKL Phosphorylation High-Content Assay
HT29-L23 human colorectal adenocarcinoma cells were maintained in RPMI 1640 medium containing 10% heat-inactivated FBS, 1% Penicillin-Streptomycin and 10 mM HEPES. Cells were seeded at 2,000 cells/well in 384 well tissue culture-treated microplates (Greiner #781090-3B) and incubated at 37° C. (5% CO2/95% O2) for 2 d. […] (5% CO2/95% O2). Necroptopsis was induced using a mixture of human TNFα (35 ng/mL) (Peprotech #300-01A), SMAC mimetic (from US 2015/0322111 A1) (700 nM) and Z-VAD ([…]) (BD pharmingen #51-6936). Following 6 h incubation at 37° C. (5% CO2/95% O2), the cells were fixed with 4% formaldehyde (ACROS 11969-0010) for 15 min at rt, then permeabilized with phosphate buffered saline (PBS) containing 0.2% Triton-X-100 for 10 min. MLKL phosphorylation was detected using anti-MLKL (phospho S358) antibody (Abeam #ab 187091) (1:1000 dilution in Blocking Buffer [PBS supplemented with 0.1% BSA]) with ON incubation at 4° C. After washing three times in PBS, goat anti-rabbit Alexa-488 (1:1000 dilution) (Life Technologies, A11008) and Hoechst 33342 (Life Technologies, H3570) (1:2000 dilution) in Blocking Buffer were added for 1 h at rt.
Following another three cycles of washes in PBS, the microplates were sealed, and cellular images were acquired in the Cellomics ArrayScan VTI high-content imager equipped with an X1 camera. Fluorescent images were taken using a 10× objective and the 386-23 BGRFRN_BGRFRN and 485-20 BGRFRN_BGRFRN filter sets, for nuclei and MLKL phosphorylation, respectively. The image sets were analyzed using the Compartmental Analysis Bioapplication software (Cellomics). The level of MLKL phosphorylation was quantified as MEAN_CircRingAvglntenRatio. The maximal inhibitory response was defined by the activity induced by Neels (CAS #: 852391-15-2, 6.25 μM). […] The data were fitted using the 4-parameter logistic equation to calculate the IC50 and Ymax values.

His-GST-TVMV-hRIPK1 (1-324), sequence (Q13546 1-324): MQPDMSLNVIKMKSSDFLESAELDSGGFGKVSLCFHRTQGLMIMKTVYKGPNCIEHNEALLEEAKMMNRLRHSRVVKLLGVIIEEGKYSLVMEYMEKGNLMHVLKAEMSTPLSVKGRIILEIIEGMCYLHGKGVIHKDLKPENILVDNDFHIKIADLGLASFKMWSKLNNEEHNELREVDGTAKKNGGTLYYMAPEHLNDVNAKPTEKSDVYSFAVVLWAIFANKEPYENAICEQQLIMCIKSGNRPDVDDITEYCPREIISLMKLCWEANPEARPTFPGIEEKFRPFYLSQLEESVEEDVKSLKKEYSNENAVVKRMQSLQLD

Compound | IC50 [1] [nM] | IC50 ([2]; Homo sapiens) [nM] | IC50 [2] [nM]
CNC(=O)c1n[nH]c2cc(-c3cnc(OC)c(C(=O)NC(C)c4ccccc4OC(F)(F)F)c3)ccc12 (single isomer, unassigned) [Example 15, 6-(6-methoxyd3-5-((1-(2-(trifluoromethoxy)phenyl)ethyl)carbamoyl)pyridin-3-yl)-N-methyl-1H-indazole-3-carboxamide] | 5 | – | –
CNC(=O)c1n[nH]c2cc(-c3cnc(OC)c(C(=O)NC4CCCC(NC(=O)C(C)(C)C)C4)c3)ccc12 (single isomer, unassigned) [Example 17, 6-(6-methoxy-5-((3-pivalamidocyclohexyl)carbamoyl)pyridin-3-yl)-N-methyl-1H-indazole-3-carboxamide] | 21 | 19 | –
CNC(=O)c1n[nH]c2cc(-c3cnc(C)c(C(=O)NC(C)c4cccc(OC(F)(F)F)c4)c3)ccc12 (single isomer, unassigned) [Example 155, N-methyl-6-[6-methyl-5-({1-[3-(tri-fluoromethoxy)phenyl]ethyl}car-bamoyl)pyridin-3-yl]-1H-indazole-3-carboxamide] | 13 | – | 22
CNC(=O)c1n[nH]c2cc(-c3cnc(C)c(C(=O)NC(C)c4cccc(OC(F)(F)F)c4)c3)ccc12 (single isomer, unassigned) [Example 156, N-methyl-6-[6-methyl-5-({1-[3-(tri-fluoromethoxy)phenyl]ethyl}car-bamoyl)pyridin-3-yl]-1H-indazole-3-carboxamide] | 3.7 | – | 7.9
CNC(=O)c1n[nH]c2cc(-c3cc(C(=O)NC(C)c4cccc(OC(F)(F)F)c4)c(C)nc3C)ccc12 (single isomer, unassigned) [Example 163, 6-[2,6-dimethyl-5-({1-[3-(trifluoromethoxy)phenyl]-ethyl}carbamoyl)pyridin-3-yl]-N-methyl-1H-indazole-3-carboxamide] | 47 | – | 180
CNC(=O)c1n[nH]c2cc(-c3cc(C(=O)NC(C)c4cccc(OC(F)(F)F)c4)c(C)nc3C)ccc12 (single isomer, unassigned) [Example 164, 6-[2,6-dimethyl-5-({1-[3-(trifluoromethoxy)phenyl]-ethyl}carbamoyl)pyridin-3-yl]-N-methyl-1H-indazole-3-carboxamide] | 5.4 | – | 3.7
[2H]C([2H])([2H])Oc1ncc(-c2ccc3c(C(=O)NC([2H])([2H])C([2H])([2H])[2H])n[nH]c3c2)cc1C(=O)N[C@H](c1cc(OC(F)(F)F)ccc1F)C([2H])([2H])[2H] [Example 1] | 17 | 6.1 | –
[2H]C([2H])([2H])Oc1ncc(-c2ccc3c(C(=O)NC([2H])([2H])C([2H])([2H])[2H])n[nH]c3c2)cc1C(=O)N[C@H](C)c1ccccc1OC(F)(F)F [Example 2, (R)—N-(ethyl-d5)-6-(6-(methoxy-d3)-5-((1-(2-(trifluoromethoxy)phenyl)ethyl)carbamoyl)pyridin-3-yl)-1H-indazole-3-carboxamide] | 5.5 | 3.5 | –
[2H]C([2H])([2H])NC(=O)c1n[nH]c2cc(-c3cnc(OC([2H])([2H])[2H])c(C(=O)N[C@H](C)c4cccc(C(F)(F)F)c4)c3)ccc12 [Example 3, (R)-6-(6-(methoxy-d3)-5-((1-(3-(trifluoromethyl)phenyl)ethyl)carbamoyl)pyridin-3-yl)-N-(methyl-d3)-1H-indazole-3-carboxamide] | 46 | 41 | –
[2H]C([2H])([2H])NC(=O)c1n[nH]c2cc(-c3cnc(OC([2H])([2H])[2H])c(C(=O)N[C@H](C)c4ccccc4OC(F)(F)F)c3)ccc12 [Example 7, (R)-6-(6-(methoxy-d3)-5-((1-(2-(trifluoromethoxy)phenyl)ethyl)carbamoyl)pyridin-3-yl)-N-(methyl-d3)-1H-indazole-3-carboxamide] | 8.5 | 4.6 | –
[2H]C([2H])([2H])NC(=O)c1n[nH]c2cc(-c3cnc(OC([2H])([2H])[2H])c(C(=O)N[C@@H]4CN(C(=O)C5CC(F)(F)C5)C[C@@H]4F)c3)ccc12 [Example 12, 6-(5-(((3R,4S)-1-(3,3-difluorocyclobutanecarbonyl)-4-fluoropyrrolidin-3-yl)carbamoyl)-6-methoxyd3-pyridin-3-yl)-N-methyl d3-1H-indazole-3-carboxamide] | 42 | 400 | –
[2H]C([2H])([2H])Oc1ncc(-c2ccc3c(C(=O)NC4CC4)n[nH]c3c2)cc1C(=O)N[C@@H](C)c1cccc(C(F)(F)F)c1 [Example 211, N-cyclopropyl-6-[6-(deutero)-methoxy-5-{[(1S)-1-[3-(trifluoro-methyl)phenyl]ethyl]carbamoyl}-pyridin-3-yl]-1H-indazole-3-carboxamide] | – | 27 | –
[2H]C([2H])([2H])NC(=O)c1n[nH]c2cc(-c3cnc(OC([2H])([2H])[2H])c(C(=O)N[C@@H](C)c4cc(C(F)(F)F)ccc4F)c3)ccc12 [Example 213, 6-(5-{[(1S)-1-[2-fluoro-5-(trifluoro-methyl)phenyl]ethyl]carbamoyl}-6-(deutero)methoxypyridin-3-yl)-N-(deutero)methyl-1H-indazole-3-carboxamide] | – | 21 | –
CNC(=O)c1n[nH]c2cc(-c3cnc(OC)c(C(=O)N[C@H](C)c4cc(OC(F)(F)F)ccc4F)c3)ccc12 [Example 216, 6-(5-{[(1R)-1-[2-fluoro-5-(trifluoro-methoxy)phenyl](2,2,2-deutero)-ethyl]carbamoyl}-6-(deutero)meth-oxypyridin-3-yl)-N-(deutero)methyl-1H-indazole-3-carboxamide] | – | – | 30
[2H]C([2H])([2H])NC(=O)c1n[nH]c2cc(-c3cnc(OC([2H])([2H])[2H])c(C(=O)N[C@H](C)c4cc(OC(F)(F)F)ccc4F)c3)ccc12 [Example 218, 6-(5-{[(1R)-1-[2-fluoro-5-(trifluoro-methoxy)phenyl]ethyl]carbamoyl}-6-(deutero)methoxypyridin-3-yl)-N-(deutero)methyl-1H-indazole-3-carboxamide] | – | 32 | –
[2H]C([2H])([2H])NC(=O)c1n[nH]c2cc(-c3cnc(OC([2H])([2H])[2H])c(C(=O)N[C@H](C)c4ccccc4C(F)(F)F)c3)ccc12 [Example 219, 6-[6-(deutero)methoxy-5-{[(1R)-1-[2-(trifluoromethyl)phenyl]ethyl]-carbamoyl}pyridin-3-yl]-N-(deutero)-methyl-1H-indazole-3-carboxamide] | – | 18 | –
[2H]C([2H])([2H])NC(=O)c1n[nH]c2cc(-c3cnc(OC([2H])([2H])[2H])c(C(=O)N[C@@H](C)c4cccc(OC(F)(F)F)c4)c3)ccc12 [Example 220, 6-[6-(deutero)methoxy-5-{[(1S)-1-[3-(trifluoromethoxy)phenyl]ethyl]-carbamoyl}pyridin-3-yl]-N-(deutero)-methyl-1H-indazole-3-carboxamide] | – | 100 | –
CNC(=O)c1n[nH]c2cc(-c3cnc(OC)c(C(=O)N[C@@H](C)c4cc(OC(F)(F)F)ccc4F)c3)ccc12 [Example 222] | – | – | 14
N-[(1,1,2,2,2-deutero)ethyl]-6-(5- {[(1R)-1-[2-fluoro-5-(trifluoro- methyl)phenyl]ethyl]carbamoyl}-6- (deutero)methoxypyridin-3-yl)-1H- indazole-3-carboxamide [Example 227] | – | – | 69
